In US20250339433A1, “PHARMACEUTICAL COMPOSITION FOR PREVENTION, ALLEVIATION, OR TREATMENT OF CANCER” (JBKLAB CO.,LTD., priority 2021, published 2025):

What was measured:
[1] = test system: MDA-MB-231; assay: Breast cancer growth inhibition in xenograft nude mice; type: in vivo; conditions: 25 mpk intravenously
Procedure: An experiment was performed to confirm the tumor inhibition of the compound of Example 1, the active ingredient of the pharmaceutical composition of the present invention, on a xenograft tumor sample of breast cancer cells (MBA-MB-231), a human-derived TNBC cell line.
Specifically, to confirm the effect of the compound of Example 1, which is the active ingredient of the pharmaceutical composition provided by the present invention, on the inhibition of breast cancer cell growth, an experiment was performed using 80 female 5-week-old xenograft Balb/c nude mice. The experimental xenograft Balb/c nude mice lacks T cells, the immune cells, were selected as an animal model suitable for transplanting human cancer cells. At the time of administration, animals within ±20% of the total average body weight were selected, and tumor growth was checked twice a week on the surface, and the size of the tumor was measured with a vernier caliper for 3 weeks. In addition, the compound of Example 1 was administered intravenously at a concentration of 25 mpk, and 30% PEG was used as a solvent.

[2] = test system: MDA-MB-231; assay: Number of mitotic figures / apoptotic bodies in xenograft tumor tissue (H&E); type: in vivo, BALB/c-nude mice; conditions: for Mitotic index: sum of five areas at x400
Procedure: An experiment was performed to evaluate the tumor necrosis effect of the compound of Example 1 by measuring the number of apoptotic bodies in tumors and H&E staining of tumor tissues in BALB/c-nude mice injected with cancer cell lines. […] After calculating the sum of the measurements and expressing them as individual values, statistical comparative analysis was performed using GraphPad Prism 5. As a result of observing the apoptotic body, it was observed that the cells were shrunk and divided (blebs) and that empty space (hollow) surrounded the periphery. […] Since the frequency of mitotic figures in tumor tissue is related to the dividing ability of tumor cells, it can reflect the degree of malignancy of the tumor.

[3] = test system: SK Hep1; assay: Combination with sorafenib, cell viability / caspase-3 activity; type: cell-based, human
Procedure: (§1) Human liver cancer cell lines (SK Hep1 and Huh-7) were treated with control (no treatment), 5 μM of the compound of Example 1, 0.1 μM of sorafenib, and 5 μM of the compound of Example 1/0.1 μM of sorafenib, and the cell viability of SK Hep1 and Huh-7 was confirmed.

[4] = test system: Huh-7; assay: as above; type: cell-based, human
Procedure: as §1

[5] = test system: SKOV-3; assay: Combination with cisplatin, cell viability; type: cell-based, human
Procedure: (§2) Human ovarian cancer cell lines (SKOV-3 and OVCAR-3) were treated with control (no treatment), 0.1 μM of the compound of Example 1, 10 μM of cisplatin, […], and the cell viability of SKOV-3 and OVCAR-3 was confirmed.

[6] = test system: OVCAR-3; assay: Combination with cisplatin, cell viability; type: cell-based, human
Procedure: as §2

[7] = test system: SK-MEL-2; assay: Cell viability assay (WST-8), cytotoxicity on cancer cell lines; type: cell-based, human; conditions: SK-MEL-2, 24 and 48 hours, dose dependently
Procedure: (§3) The cytotoxicity of the compound of Example 1 against various cancer cell lines was evaluated. Etoposide, sold as an anticancer agent, was used as a control group drug. Specifically, the cell viability assay was performed as follows. A549, SK-OV-3, SK-MEL-2, and HCT15 cell lines were seeded in 96 well plates at the density of 5×10^3 cells per well and cultured for 24 hours. Then, the plates were treated with the compound of Example 1 or etoposide at different concentrations, followed by culture for 24 and 48 hours. At the end of the culture, 100 μl of WST-8 solution was added to each well of the plate, and the absorbance was measured with a microplate reader using a 450 nm optical filter to measure the formazan produced by the reducing factors in living cells. • A549: human non-small cell lung cancer cells • SK-OV-3: human ovarian cancer cells • SK-MEL-2: human melanoma cells • HCT15: human colorectal cancer adenocarcinoma cells

[8] = test system: HCT15; assay: as above; type: cell-based, human; conditions: HCT15, 24 and 48 hours, dose dependently
Procedure: as §3

[9] = test system: SK-OV-3; assay: as above; type: cell-based, human; conditions: SK-OV-3, 24 and 48 hours, dose dependently
Procedure: as §3

[10] = test system: A549; assay: as above; type: cell-based, human
Procedure: as §3

[11] = test system: BT20; assay: Breast cancer cell viability assay (WST-8); type: cell-based, human; conditions: dose dependently
Procedure: (§4) An experiment was performed to confirm the growth inhibitory effect of the compounds of Examples 1 and 2, the active ingredients of the pharmaceutical composition of the present invention, on breast cancer cell lines through cell viability assay.
(§5) Specifically, the cell viability assay was performed as follows. BT20, a human-derived breast cancer cell line, and MDA-MB-231, a TNBC cell line, were each seeded in 96-well plates at the density of 5×10^3 cells/well and cultured for 24 hours. […] At the end of the culture, 100 μl of WST-8 solution was added to each well of the plate, and the absorbance was measured with a microplate reader using a 450 nm optical filter to measure the formazan produced by the reducing factors in living cells.

[12] = test system: MDA-MB-231; assay: Breast cancer cell viability assay (WST-8); type: cell-based, human; conditions: dose dependently
Procedure: as §4, §5

[13] = test system: MDA-MB-453; assay: Breast cancer cell viability assay (WST-8); type: cell-based; conditions: MDA-MB-453, 24 hours, dose dependently
Procedure: Specifically, the cell viability assay was performed as follows. BT20, a human-derived breast cancer cell line, and MDA-MB-231, a TNBC cell line, were each seeded in 96-well plates at the density of 5×10^3 cells/well and cultured for 24 hours. Then, I-bet 762 and the compounds were treated thereto at different concentrations and cultured for 48 hours. At the end of the culture, 100 μl of WST-8 solution was added to each well of the plate, and the absorbance was measured with a microplate reader using a 450 nm optical filter to measure the formazan produced by the reducing factors in living cells.
FIGS. 10A and 10B show the cell viability of MDA-MB-231, MDA-MB-453, and BT-20 after 24 hours of treatment with the compound of Example 3.

Structure (SMILES): c1nc(Nc2ccc(N3CCCC3)cc2)c2cc[nH]c2n1 [Example 1, N-(4-(pyrrolidin-1-yl)phenyl)-7H-pyrrolo[2,3-d]pyrimidin-4-amine]
- biological toxicity (change in body weight) ([1]; 3 weeks): no biological toxicity
- cachexia phenomenon ([1]; 3 weeks): not observed
- tumor growth (change in tumor size/volume) ([1]; vs CTL): significantly suppressed
- tumor growth (change in tumor weight) ([1]; vs CTL): significantly suppressed
- number of apoptotic bodies ([2]; T1 and T2 groups compared to NC, dose dependently): higher
- Mitotic index ([2]; T1 group (2 times/week)): 25.5 ± 10.2
- Mitotic index ([2]; T2 group (3 times/week)): 20.8 ± 7.4
- cell viability ([3]; SK Hep1, 5 μM Example 1 in combination with 0.1 μM sorafenib): further inhibited (synergistic effect)
- cell viability ([3]; SK Hep1, 5 μM alone): suppressed
- cell viability ([4]; Huh-7, 5 μM Example 1 in combination with 0.1 μM sorafenib): further inhibited (synergistic effect)
- cell viability ([4]; Huh-7, 5 μM alone): suppressed
- cell viability ([5]; SKOV-3, 0.1 μM Example 1 in combination with 10 μM cisplatin): further inhibited (synergistic effect)
- cell viability ([5]; SKOV-3, 0.1 μM alone): suppressed
- cell viability ([6]; OVCAR-3, 0.1 μM Example 1 in combination with 10 μM cisplatin): further inhibited (synergistic effect)
- cell viability ([6]; OVCAR-3, 0.1 μM alone): suppressed
- toxicity to cancer cell line (cell viability) [7]: excellent toxicity
- toxicity to cancer cell line (cell viability) [8]: excellent toxicity
- toxicity to cancer cell line (cell viability) [9]: excellent toxicity
- toxicity to cancer cell line (cell viability) ([10]; A549, 24 and 48 hours, dose dependently): excellent toxicity
- toxicity compared with etoposide ([10]; various cancer cell lines (A549, SK-OV-3, SK-MEL-2, HCT15)): equally or more effective than etoposide

Structure (SMILES): N.N.[Cl][Pt][Cl] [cisplatin, reference compound]
- cell viability ([5]; SKOV-3, 1 μM of cisplatin alone): suppressed
- cell viability ([6]; OVCAR-3, 1 μM of cisplatin alone): suppressed

Structure (SMILES): CNC(=O)c1cc(Oc2ccc(NC(=O)Nc3ccc(Cl)c(C(F)(F)F)c3)cc2)ccn1 [sorafenib, reference compound]
- cell viability ([3]; SK Hep1, 0.1 μM sorafenib alone): suppressed
- cell viability ([4]; Huh-7, 0.1 μM sorafenib alone): suppressed

Structure (SMILES): O=C(Nc1n[nH]c2ncc(-c3cnn(C4CCNCC4)c3)cc12)c1ccc(F)cc1 [Example 3, 4-fluoro-N-(5-(1-(piperidin-4-yl)-1H-pyrazol-4-yl)-1H-pyrazolo[3,4-b]pyridin-3-yl)benzamide]
- cell viability ([11]; BT-20, 24 hours): suppressed
- cell viability ([12]; MDA-MB-231, 24 hours): suppressed
- cell viability [13]: suppressed

Structure (SMILES): CN1CCN(c2ccc(C(=O)Nc3n[nH]c4ncc(Br)cc34)cc2)CC1 [Example 2, N-(5-bromo-1H-pyrazolo[3,4-b]pyridin-3-yl)-4-(4-methylpiperazin-1-yl)benzamide]
- cell viability ([11]; BT20, 24 and 48 hours): inhibited the cell viability
- cell viability ([12]; MDA-MB-231, 24 and 48 hours): inhibited the cell viability
